Assay results published in patent publication US4359468A, “Antiallergic N-[4-(indolyl)-piperidino-alkyl]-benzimidazolones” (Boehringer Ingelheim Ltd., priority 1981, dated 1982).

Assays:
[1] = system: passive cutaneous anaphylaxis skin reaction in rats (anti-OA reaginic serum, ovalbumin challenge); test: Rat Passive Cutaneous Anaphylaxis (PCA) Test; assay type: in vivo; conditions: male CD rats, 50 percent reduction in area, i.v. or oral, route not given
Description: Rat Passive Cutaneous Anaphylaxis (PCA) Test
The test used was essentially that described by El-Azab, J. and Stewart, P. B., "Pharmacological Profile of a New Anti-Allergic Compound PRD-92-EA." Int. Archs. Allergy Appl. Immunol. 55: 350-361, 1977;
A dilution of anti-OA reaginic serum was used to give reproducible skin reactions with diameters between 10-15 mm in unsensitized rats. This anti-serum dilution was injected in a volume of 0.1 ml intradermally on each side of the shaved backs of male CD rats (150-160 gm) before antigen challenge. Test compounds which were evaluated by the intravenous (i.v.) route were dissolved in water, and mixed with 0.5 ml of a solution containing 5 mg ovalbumin and 2 percent Evans Blue and administered at a volume of 1 ml/kg. […]
Thirty minutes after antigenic challenge, i.e. for either intravenous or oral administration, the rats were killed by CO2 asphyxiation. A midline incision was made along the spine and the skin was reflected and the diameter of the blued areas were measured in millimeters. The mean area in square millimeters was determined for each spot and the mean circular area of that test group was calculated. The mean area in square millimeters of an untreated control group was considered as a 100 percent response, and the results of the test compound groups were expressed as a percent change from the control values. […]

mast cells = test: Inhibition of Peritoneal Mast Cell Degranulation (MCD) in Rats Passively Sensitized with OA Antiserum or Induced by Compound 48/80; assay type: in vivo, rat; conditions: male CD rats, OA antiserum or Compound 48/80, i.v., i.p. or p.o., route not given
Description: Inhibition of Peritoneal Mast Cell Degranulation (MCD) in Rats Passively Sensitized with OA Antiserum or Induced by Compound 48/80
This test was adapted from that described by Mota, I. and Osler, A. G. "Mast Cell Degranulation,"
Male CD rats (150-160 gm) were divided into 5 groups as follows:
Group I: Nonspecific MCD control (3 rats)
Group II: Positive MCD control (5 rats)
Groups III, IV, V: Positive MCD following test compound (5 rats each)
Group I was injected intraperitoneally with 3 ml of normal rat serum. Groups II through V were intraperitoneally administered 3 ml of an antiserum predetermined to produce a 60-80 percent greater degranulation than normal rat serum. Eighteen to 24 hours later, test compound was administered (i.e., i.v. immediately, i.p. 5 minutes, or p.o. 20 minutes) before i.p. antigen challenge with 0.5 mg/kg of 2×crystalline ovalbumin in a concentration of 0.005 percent saline. Fifteen minutes after challenge, the rats were killed by asphyxiation with CO2. […]
Microscopic slides of the mesentery were prepared and analyzed by a modification of the method by Fugner, A. "An Improved Method for the Study of Reaginmediated Mast Cell Degranulation in Rats," Experientia, 29: 708, 1973, […]
The results were calculated and expressed as percent of inhibition of degranulation as follows: [formula]

[2] = system: histamine-induced blueing in rat skin; test: In Vivo Inhibition of Histamine-Induced Blueing in Rat Skin; conditions: po, male CD rats, 50 percent reduction in blue-spotted area, p.o., 3 μg histamine intradermal, read-out: ED50 Antihist.
Description: In Vivo Inhibition of Histamine-Induced Blueing in Rat Skin
Male CD rats (150-160 gm) were divided into two groups. The hair was removed from an area of the back with an electric clipper. An untreated control group received 10 ml/kg, p.o. of normal saline in 1 percent acacia. Experimental groups received test compound suspended in 1 percent acacia at a volume of 10 ml/kg, p.o. Two percent Evans Blue dye in normal saline in a volume of 0.5 ml was administered intravenously to all animals. Twenty minutes following administration of the test compound or vehicle, 3 μg of histamine diphosphate in 0.1 ml of normal saline was injected intradermally in two sites of the shaved area on the backs of the rats. Fifteen minutes following histamine injection, all rats were killed by CO2 asphyxiation.
An incision was made along the spine and the skin cleanly separated. The dorsal skin was reflected and the diameters of the blue-spotted wheals were measured. The area in square millimeters was determined for each resulting blue spot and the mean area for the control and test groups were calculated. The mean area for the control group was considered as a 100 percent response. Test group results were expressed as a percentage change from control. An ED50 (i.e., defined as a 50 percent reduction in blue-spotted area) was determined by linear regression analysis.

Structure (SMILES): O=c1[nH]c2ccccc2n1CCCN1CCC(c2c[nH]c3ccccc23)CC1 [Example 4, N-{3-[4-(3-indolyl)-piperidino]-propyl}-benzimidazolone]
- ED50 [1]: 1.6 mg/kg
- ED50 (mast cells; Rattus norvegicus, Mast cell): 3 to 6.4 mg/kg
- ED50 [2]: 8.7 mg/kg

Structure (SMILES): O=c1[nH]c2ccccc2n1CCCN1CCN(C(c2ccccc2)c2ccccc2)CC1 [Oxatomide]
- ED50 [1]: 8.3 mg/kg
- ED50 MCD (mast cells): neg.
- ED50 [2]: 8.1 mg/kg
